Source: US20230255962A1, “COMBINATION OF A BTK INHIBITOR AND AN INHIBITOR OF CDK9 TO TREAT CANCER” (ASTRAZENECA AB, priority 2017, published 2023)

Experiments:
OCILy10 tumor cells = assay: Subcutaneous tumor model, tumor volume; format: in vivo, C.B.-17 SCID female mice; conditions: OCILy10, following 3 cycles of dosing; AZD4573 ip BID 2 on/5 off, ibrutinib 12 mg/kg po QD
Experimental: AZD4573 was formulated in dimethylacetamide (DMA)/polyethylene glycol 400 (PEG 400)/1% w/v Tween 80 solution 2/30/68 and dosed at 5 mL/kg, intraperitoneally (ip), BID with a 2 hour split on days 1 and 2 followed by a 5 day dose holiday; i.e., a 2 on/5 off schedule. […]
5×10^6 OCILy10 tumor cells or 10×10^6 TMD8 tumor cells were injected subcutaneously in the right flank of C.B.-17 SCID female mice in a volume of 0.1 mL containing 50% matrigel. 10×10^6 Karpas-422 tumor cells were injected subcutaneously in the right flank of SCID beige female mice in a volume of 0.1 mL containing 50% matrigel. Tumor volumes (measured by caliper), animal body weight, and tumor condition were recorded twice weekly for the duration of the studies. The tumor volume was calculated using the formula: length (mm)×width (mm)^2×0.52. For efficacy studies, growth inhibition from the start of treatment was assessed by comparison of the differences in tumor volume between control and treated groups. […]
AZD4573 was formulated in dimethylacetamide (DMA)/polyethylene glycol 400 (PEG 400)/1% w/v Tween 80 solution 2/30/68 and dosed at 5 mL/kg, intraperitoneally (ip), bi-daily (BID) with a 2 hour split on days 1 and 2 with a 5 day dose holiday. […] Tumor volumes (measured by caliper), animal body weight, and tumor condition were recorded twice weekly for the duration of the studies. […]

TMD8 [1] = assay: Western blot time course, cleaved caspase-3 (induction of apoptosis); format: cell-based; conditions: TMD8, 100 nM AZD4573 8-hour time course, alone or following 24-hour pre-treatment with 100 nM acalabrutinib
Experimental: (§1) Two BTK inhibitor-sensitive ABC-DLBCL cell lines (OCILy10 and TMD8) and one insensitive GCB-DLBCL cell line (Karpas422) were treated for an 8-hour time course with either 100 nM AZD4573 alone or following a 24-hour pre-treatment with 100 nM acalabrutinib (since exposure to acalabrutinib for 24 hours was sufficient to induce maximal BH3-only protein levels). Cells were harvested for protein lysates at varying time points (0, 0.5, 1, 2, 4, and 8 hours) post-AZD4573 treatment, normalized for protein concentration using the BCA Protein Assay Kit, and run for western blots according to standard protocols. To ensure expected target engagement was achieved, the blots were probed for the proximal and distal biomarkers for CDK9 (pSer2-RNAPolII and Mcl-1, respectively) and the biomarker for activated BTK (pBTK). To gauge the time to induction of apoptosis, cleaved caspase-3 was also assessed. A loading control (vinculin) was also utilized for normalization.

OCILy10 [2] = assay: TMRE/DAPI flow cytometry, percentage of apoptotic or dead cells; format: cell-based
Experimental: (§2) Two BTK inhibitor-sensitive ABC-DLBCL cell lines (OCILy10 and TMD8) and one insensitive GCB-DLBCL cell line (Karpas422) were treated with either vehicle (DMSO), 100 nM acalabrutinib, or 100 nM AZD4573 for varying lengths of time as either single agent or in combination. Since exposure of BTKi-sensitive cell lines to acalabrutinib for 24 hours was sufficient to induce maximal BH3-only protein levels relative to vehicle-treated cells (FIG. 1), 24-hour pre-treatment of acalabrutinib was chosen for one of the combination sequences. Therefore, cells were treated with: 32 hours of acalabrutinib alone; 8 hours of AZD4573 alone; 8 hours of AZD4573 and acalabrutinib dosed concurrently; or 32 hours of acalabrutinib with AZD4573 added sequentially for the final 8 of those 32 hours (in other words, 24 hours of acalabrutinib pre-treatment).
(§3) The percentage of apoptotic or dead cells was determined by staining the samples with both tetramethylrhodamine, ethyl ester (TMRE) and 4′,6-diamidino-2-phenylindole (DAPI) and then subjecting them to flow cytometry using a BD LSR Fortessa. TMRE is a positively charged dye that accumulates in active mitochondria, and cells undergoing apoptosis experience mitochondrial outter membrane permeabilization (MOMP), which then fails to retain TMRE. […] Following appropriate treatments, cells were stained directly with 200 nM TMRE, incubated for 30 minutes at 37° C., resuspended in flow buffer containing DAPI, and subjected to flow cytometry. Flowjo was used to establish appropriate gates according to viability (DAPI) and MOMP (TMRE), and viable cells were defined as those with low DAPI and high TMRE staining.

OCILy10 [3] = assay: Western blot time course, cleaved caspase-3 (induction of apoptosis); format: cell-based; conditions: OCILy10, 100 nM AZD4573 8-hour time course, alone or following 24-hour pre-treatment with 100 nM acalabrutinib
Experimental: as §1
The BTK inhibitor-sensitive ABC-DLBCL cell line OCILy10 was treated in vitro for an 8-hour time course with either 100 nM AZD4573 alone or following a 24-hour pre-treatment with 30 nM ibrutinib since, similar to acalabrutinib, exposure for 24 hours was sufficient to induce maximal BH3-only protein levels (data not shown). […] To gauge the time to induction of apoptosis, cleaved caspase-3 was also assessed. […]

OCILy10 [4] = assay: Western blot of Bcl2 family / BH3-only protein levels; format: cell-based
Experimental: (§4) OCILy10, TMD8, and Karpas422 were treated with either vehicle or 100 nM acalabrutinib for 2 to 72 hours. Protein lysates were harvested at multiple time points in that interval, protein concentration was determined using the BCA Protein Assay Kit, and Western blots were performed according to standard protocol to assess the effects on Bcl2 family protein levels. Each sample was normalized to vinculin as a loading control, and then protein levels of acalabrutinib-treated samples were calculated relative to those of vehicle-treated samples.
The BTK inhibitor-sensitive ABC-DLBCL cell line OCILy10 was treated in vitro for an 8-hour time course with either 100 nM AZD4573 alone or following a 24-hour pre-treatment with 30 nM ibrutinib since, similar to acalabrutinib, exposure for 24 hours was sufficient to induce maximal BH3-only protein levels (data not shown). Cells were harvested for protein lysates at varying time points (0, 0.5, 1, 2, 4, and 8 hours) post-AZD4573 treatment, normalized for protein concentration using the BCA Protein Assay Kit, and run for Western blots according to standard protocols. To ensure expected target engagement was achieved, the blots were probed for the proximal and distal biomarkers for CDK9 (pSer2-RNAPolII and Mcl-1, respectively) and the biomarker for activated BTK (pBTK). […] To gauge the time to induction of apoptosis, cleaved caspase-3 was also assessed. […]

Karpas422 [5] = assay: as above; format: cell-based; conditions: Karpas422, 100 nM acalabrutinib
Experimental: as §4

TMD8 [6] = assay: as above; format: cell-based
Experimental: as §4

Karpas422 [7] = assay: TMRE/DAPI flow cytometry, percentage of apoptotic or dead cells; format: cell-based; conditions: Karpas-422, 100 nM acalabrutinib alone or in combination with 100 nM AZD4573
Experimental: as §2, §3

OCILy10 [8] = assay: CellTiter-Glo viability readout, 72 hours, GI50; format: cell-based; conditions: OCILy10, 10-point dose-response
Experimental: (§5) Two ABC-DLBCL (OCILy10 and TMD8) cell lines and one GCB-DLBCL (Karpas422) cell line were treated with either vehicle (DMSO) or a 10-point, ½ log serially dilution of acalabrutinib for 72 hours with a CellTiter-Glo viability readout. The concentration at which 50% growth is inhibited (GI50) was calculated using GraphPad Prism or GeneData.

TMD8 [9] = assay: CellTiter-Glo viability readout, 72 hours, GI50; format: cell-based; conditions: TMD8, 10-point dose-response
Experimental: as §5

SMILES	complete response, % of treated animals (OCILy10 tumor cells) [%]	induction of cleaved caspase (TMD8 [1])	cell death (OCILy10 [2]; OCI-LY-10, 8 hours of 100 nM AZD4573 alone) [%]	induction of cleaved caspase (OCILy10 [3])	time to maximal BH3-only protein levels following dosing (OCILy10 [4]; BTK inhibitor-sensitive cells (OCILy10), 100 nM) [h]	levels of pro-apoptotic BH3-only proteins Bim and Bmf (OCILy10 [4]; OCILy10, 100 nM acalabrutinib, 24 hours, relative to the insensitive cell line)	BH3-only protein levels (Karpas422 [5])	time to maximal BH3-only protein levels following dosing (TMD8 [6]; BTK inhibitor-sensitive cells (TMD8), 100 nM) [h]	levels of pro-apoptotic BH3-only proteins Bim and Bmf (TMD8 [6]; TMD8, 100 nM acalabrutinib, 24 hours, relative to the insensitive cell line)	cell death (OCILy10 [2]; OCI-LY-10, 32 hours of 100 nM acalabrutinib alone) [%]	effect on apoptotic/dead cells (Karpas422 [7])	sensitivity to BTK inhibition (dose-response) (OCILy10 [8])	sensitivity to BTK inhibition (dose-response) (TMD8 [9])
CC(=O)N[C@@H]1CCC[C@H](C(=O)Nc2cc(-c3cnn4c3CC(C)(C)C4)c(Cl)cn2)C1 [AZD4573, (1S,3R)-3-acetamido-N-(5-chloro-4-(5,5-dimethyl-5,6-dihydro-4H-pyrrolo[1,2-b]pyrazol-3-yl)pyridin-2-yl)cyclohexanecarboxamide]	100	mild caspase activation by 8 hours	~40	mild caspase activation by 8 hours									
CC#CC(=O)N1CCC[C@H]1c1nc(-c2ccc(C(=O)Nc3ccccn3)cc2)c2c(N)nccn12 [acalabrutinib, (S)-4-(8-amino-3-(1-but-2-ynoylpyrrolidin-2-yl)imidazo[1,5-a]pyrazin-1-yl)-N-(pyridin-2-yl)benzamide]					≤ 24	increased	did not increase	≤ 24	increased	~20	minimal effect	sensitive	sensitive
